Tested on: adult human epidermal keratinocytes (aHEK)
Experiment: Proliferation of adult human epidermal keratinocytes (aHEK)
Type: cell-based
Conditions: 100 ug/ml; vs water (0 μg/ml)
Text: Example 3(e): FIG. 6 depicts the effect of threitol-1 diphosphate on the proliferation of adult human epidermal keratinocytes (aHEK).

## O=P(O)(O)OP(=O)(O)OC[C@@H](O)[C@H](O)CO [DP sSBD4, threitol-1-diphosphate]
  stimulation of human adult epidermal keratinocyte proliferation: 17%
